Test results from article PMC7698842, “Lanostane Triterpenoid Metabolites from a Penares sp. Marine Sponge Protect Neuro-2a Cells against Paraquat Neurotoxicity” (Molecules, 2020).

How the values were obtained:
[1] = Cytotoxicity toward Neuro-2a cells (MTT assay); assay type: cell-based, mouse; settings: mouse, Neuro-2a neuroblastoma cells, 24 h
Procedure: (§1) The cells of mouse neuroblastoma cell line Neuro-2a (ATCC® CCL-131™; American Type Culture Collection, Manassas, VA, USA) were cultured in Dulbecco’s modified Eagle’s medium (DMEM) containing 10% fetal bovine serum (Biolot, St. Petersburg, Russia) and 1% penicillin/streptomycin (Biolot, St. Petersburg, Russia) at 37 °C in a humidified atmosphere with 5% (v/v) CO2. Initially, cells were incubated in cultural flasks until sub-confluent (~80%). For testing, Neuro-2a cells were seeded in 96- or 6-well plates and experiments were started after 24 h.
(§2) The cells (1 × 10^4 cells/well of a 96-well plate) were incubated with different concentrations of studied compounds during 24 h. After that, cell viability was determined by the MTT (3-(4,5-dimethylthiazol-2-yl)-2,5-diphenyltetrazolium bromide) method according to the manufacturer’s instructions (Sigma-Aldrich, St. Louis, MO, USA). Absorbance of the converted formazan was measured using a Multiskan FC microplate photometer (Thermo Scientific, Waltham, MA, USA) at λ = 570 nm. The results were presented as percent of control data, and concentration of cell viability inhibition on 50% (IC50) was calculated.

[2] = test system: Neuro-2a cells; test: Cytotoxicity toward Neuro-2a cells (MTT assay); assay type: cell-based, mouse; settings: Neuro-2a cells, 100 μM, MTT assay
Procedure: as §1, §2

[3] = DPPH radical scavenging assay (cell-free); settings: 30 min, MeOH
Procedure: The 2,2-diphenyl-1-picryl-hydrazyl-hydrate (DPPH) radical scavenging activity was tested as described previously. The compounds were dissolved in MeOH, and the solutions (120 µL) were dispensed into wells of a 96-well microplate. The DPPH (Sigma-Aldrich, Steinheim, Germany) was dissolved in MeOH at a concentration of 7.5 × 10^−3 M and the solution (30 µL) was added to each well. The concentrations of tested compounds in the mixtures were 10 and 100 µM. Ascorbic acid was used as a positive control. The mixtures were shaken and left for 30 min. The absorbance of the resulting solutions was measured at λ = 520 nm with a MultiscanFC plate reader (Thermo Scientific, Waltham, MA, USA). The concentration scavenging 50% of the DPPH radical (EC50) was calculated for each compound.

[4] = test system: PQ-treated Neuro-2a cells; test: Propidium iodide straining of PQ-treated Neuro-2a cells (membrane permeability); assay type: cell-based, mouse; settings: PQ-treated cells, 24 h
Procedure: The cells (1 × 10^4 cells/well) were seeded in black 96-well plates before testing. After incubation of the cells with compounds and PQ during 24 h, PI solution (10 μg/mL) was added to each well and the plate was incubated in the dark at 37 °C for 10 min. Cells were washed with phosphate buffer saline (PBS) (BioloT, St.Peterburg, Russia) and fluorescence was measured with a Fluoroskan Ascent plate reader (Thermo Labsystems, Helsinki, Finland) at […]. All manipulations with fluorescent probes were carried out in a darkened room. The results were presented as percent of positive control data.

[5] = test system: ROS level in PQ-treated Neuro-2a cells; test: ROS level analysis in PQ-treated Neuro-2a cells (H2DCFDA); assay type: cell-based, mouse; settings: tested at 1 and 10 μM, PQ 500 µM 1 h
Procedure: The cells (1 × 10^4 cells/well of a 96-well plate) were incubated with compound solutions (1 and 10 µM) during 1 h. Then, PQ was added to cell suspension to a resulting concentration of 500 µM for incubation during 1 h. Cells incubated without PQ and compounds and with PQ alone were used as positive and negative controls, respectively. The 20 µL of 2,7-dichlorodihydrofluorescein diacetate solution (H2DCFDA, Molecular Probes, Eugene, OR, USA) was added to each well (10 µM, final concentration) and the plate was incubated for an additional 10 min at 37 °C. The intensity of dichlorofluorescin fluorescence was measured with a PHERAstar FS plate reader (BMG Labtech, Ortenberg, Germany) at λex = 485 nm and λem = 518 nm. The data were processed by MARS Data Analysis v. 3.01R2 (BMG Labtech, Ortenberg, Germany). The results were presented as percent of positive control data.

[6] = test system: mitochondrial membrane potential in PQ-treated Neuro-2a cells; test: Mitochondrial membrane potential detection (TMRM) in PQ-treated Neuro-2a cells; assay type: cell-based, mouse; settings: compound 10 μM, PQ 500 µM 1 h
Procedure: The cells (1 × 10^4 cells/well of a 96-well plate) were incubated with compound solutions (1 and 10 µM) during 1 h. Then, PQ was added to cell suspension to a resulting concentration of 500 µM for incubation during 1 h. Cells incubated without PQ and compounds and with PQ alone were used as positive and negative controls, respectively. The tetramethylrhodamine methyl (TMRM) (Sigma-Aldrich, St. Louis, MO, USA) solution at 500 nM was added in each well and cells were incubated for 30 min at 37 °C. The intensity of fluorescence was measured with a PHERAstar FS plate reader (BMG Labtech, Ortenberg, Germany) at λex = 540 nm and λem = 590 nm. The data were processed by MARS Data Analysis v. 3.01R2 (BMG Labtech, Ortenberg, Germany). The results were presented as percent of positive control data.

[7] = test system: Hsp70 level in Neuro-2a cells; test: Hsp70 level analysis by Western blot in Neuro-2a cells; assay type: cell-based, mouse; settings: compound 10 µM 1 h, then PQ 500 µM 24 h
Procedure: The Hsp70 expression was detected by Western blot analysis. Cell suspensions (1.6 × 10^5 cells/well of a 6-well plate) were seeded and treated with studied compounds at a concentration of 10 µM for 1 h. After that, PQ (500 µM) was added and cells were incubated during 24 h. Cells incubated without PQ and compounds and with PQ alone were used as positive and negative controls, respectively. Cells were washed by cold PBS (BioloT, Russia) twice and lysed by radioimmunoprecipitation assay (RIPA) buffer (BioloT, St. Peterburg, Russia). The amount of proteins was measured by the Bradford method and equal samples (25 µg) were prepared using sample buffer. Proteins were separated with sodium dodecyl sulphate (SDS) electrophoresis in 10% polyacrylamide gel. The electrophoretically separated proteins were transferred onto the polyvinylidene difluoride (PVDF) membrane Whatman (Sigma-Aldrich, St. Louis, MO, USA) using a semi-dry transfer apparatus (Helicon, Moscow, Russia). […] The peroxidase reaction was visualized by an enhanced chemiluminescence (ECL) kit according to the instructions of the manufacturer (Sigma-Aldrich, St. Louis, MO, USA) using the VersaDoc Imaging System (Bio-Rad, Hercules, CA, USA).

[8] = test system: PQ-treated Neuro-2a cells; test: Neurite outgrowth estimation in PQ-treated Neuro-2a cells; assay type: cell-based, mouse
Procedure: Neurite outgrowth was studied as described by Li et al.. Neuro-2a cells were seeded in 6-well plates (1.6 × 10^5 cells/well) in DMEM medium containing 10% fetal bovine serum (Biolot, St. Peterburg, Russia) and 1% penicillin/streptomycin (Invitrogen, Carlsbad, CA, USA). The next day, this growth media was changed with serum-free DMEM media containing 1% penicillin/streptomycin, and cells were treated with studied compounds at a concentration of 10 µM for 1 h. After that, PQ (500 µM) was added and cells were incubated during 24 h. Cells incubated without PQ and compounds and with PQ alone were used as positive and negative controls, respectively.
For each well, approximately 10 images were acquired randomly by scanning the wells from left to right and top to bottom using the AxioImager A1 microscope (CarlZeiss, Oberkochen, Germany). A total of ten random fields (near 350 cells in each) for each experimental group were scored for neurite outgrowth. The number of neurite-bearing cells and lengths of the individual neurites for each cell were measured using the AxioVision 4.7.1 software (CarlZeiss, Oberkochen, Germany). Length was defined as the straight-line distance from the tip of the neurite to the junction between the cell body and neurite base. In the case of branched neurites, the length of the longest branch was measured from the tip of the neurite to the cell body. In each experimental group, the average length of neurites was calculated, as well as the average number of neurites per one cell.

[9] = test system: histamine release induced by anti-IgE; settings: cited from earlier work
[10] = cells incubated with compound 10 µM and PQ 500 µM
[11] = compound 10 µM 1 h, then PQ 500 µM 24 h

SMILES: CC(=O)O[C@H]1CC[C@]2(C)C3=C(CC[C@H]2C1(C)C)[C@]1(C(=O)O)CC[C@H]([C@H](C)CCC=C(C)C)[C@@]1(C)CC3 [Compound 5, acetylpenasterol]
- activity at 24 h, 10 µM ([1]; Neuro-2a cell viability, 10 μM, read-out: Cytotoxicity (MTT Assay) % of Control at 10 μM): 97.9 ± 3.3%
- IC50 at 24 h ([1]; Neuro-2a cells): > 100 µM
- death of cells [2]: 45.6%
- EC50 [3]: > 100 µM
- decrease of fluorescence of PI-straining cells ([4]; compound 1 μM pre-incubation): 20%
- decrease of fluorescence of PI-straining cells ([4]; compound 10 μM pre-incubation): 24%
- concentrations at which ROS content in PQ-treated cells was reduced [5]: effective at concentrations of 1 and 10 μM
- increase of intensity of TMRM fluorescence (PQ-induced mitochondrial dysfunction diminished) [6]: 35%
- effect on Hsp70 level in PQ-treated cells [7]: raised it to the initial level
- proportion of neurites with a length of 0–4.99 µm in the total number [8, 10]: 6.4%
- proportion of neurites with a length of 10.00–14.99 µm in the total number [8, 10]: 20.7%
- increase in the average number of neurites per cell [8, 11]: 20%
- increase of neurites-bearing cell amount compared to PQ-treated control [8, 11]: 144%
- inhibition of histamine release induced by anti-IgE [9]: inhibitors of histamine release
